Test results: the supplement of paper PMC10307832

How the values were obtained:
[1] = compound: CC1=CC(=CC=C1)NC2=NC(=CS2)C3=CC=NC=C3 + COc1cc2c(Oc3ccc(NC(=O)C4(C(=O)Nc5ccc(F)cc5)CC4)cc3F)ccnc2cc1OCCCN1CCOCC1 [Foretinib] (partner 0.25 µM); experiment: relative viability (nuclei count vs DMSO), 5 days (fraction); higher = more cells survive
Method in brief: (§1)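 One day after seeding in 1536-well plates, lung cancer cell lines were dosed by pin tool. Dosing was either single-drug or a fixed anchor-drug dose plus five library-drug doses (not always all listed) in √10 steps. After 5 days, nuclei were stained in one fix-and-stain step and counted on 4× images, and relative viability is the nuclei count of treated wells over that of vehicle wells, given as the median of duplicate plates.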

Masitinib + Tozasertib = compound: Cc1ccc(NC(=O)c2ccc(CN3CCN(C)CC3)cc2)cc1Nc1nc(-c2cccnc2)cs1 [Masitinib] + Cc1cc(Nc2cc(N3CCN(C)CC3)nc(Sc3ccc(NC(=O)C4CC4)cc3)n2)n[nH]1 [Tozasertib] (partner 0.1 µM); experiment: as above
Method in brief: as §1

Cell Line | relative viability ([1]; first compound 0.08 µM) | relative viability ([1]; first compound 0.253 µM) | relative viability ([1]; first compound 0.8 µM) | relative viability ([1]; first compound 2.53 µM) | relative viability ([1]; first compound 8 µM) | relative viability (Masitinib + Tozasertib; first compound 0.01 µM) | relative viability (Masitinib + Tozasertib; first compound 0.03162 µM) | relative viability (Masitinib + Tozasertib; first compound 0.1 µM) | relative viability (Masitinib + Tozasertib; first compound 0.3162 µM) | relative viability (Masitinib + Tozasertib; first compound 1 µM)
NCI-H1993 | 0.684 | 0.635 | 0.649 | 0.703 | 0.669 | 0.519 | 0.554 | 0.547 | 0.593 | 0.498
CAL-12T | 1.2 | 1.08 | 1.04 | 1.09 | 0.899 | 0.303 | 0.282 | 0.307 | 0.192 | 0.234
NCI-H1623 | 0.836 | 0.729 | 0.776 | 0.699 | 0.824 | 0.447 | 0.548 | 0.477 | 0.398 | 0.35
HCC-44 |  |  |  |  |  | 0.865 | 1.13 | 0.876 | 0.799 | 0.599
EKVX | 0.941 | 0.726 | 0.578 | 0.733 | 0.75 |  | 0.409 | 0.405 | 0.443 | 0.333
NCI-H1666 | 0.929 | 0.905 | 0.81 | 0.767 | 0.642 |  | 0.495 | 0.586 | 0.58 | 0.585
NCI-H2170 | 0.975 | 1.05 | 0.986 | 0.976 | 0.893 | 0.778 | 0.685 | 0.746 | 0.739 | 0.671
NCI-H1734 | 0.821 | 0.84 | 0.816 | 0.873 | 0.794 | 0.285 | 0.27 | 0.318 | 0.276 | 0.272
Calu-6 | 0.712 | 0.795 | 0.727 | 0.768 | 0.768 |  |  |  |  | 
EBC-1 | 0.0887 | 0.103 | 0.0911 | 0.117 | 0.114 |  |  |  |  | 
A-427 | 1.02 | 1.08 | 1.14 | 0.924 | 0.707 |  | 0.214 |  | 0.171 | 0.227
NCI-H2405 | 0.914 | 0.942 | 0.786 | 0.99 | 1 | 0.759 | 0.729 | 0.725 | 0.631 | 0.635
NCI-H1437 | 1.16 | 1.21 | 1.11 | 1.27 | 1.12 | 0.399 | 0.454 | 0.4 | 0.426 | 0.36
SK-MES-1 | 0.687 | 0.78 | 0.751 | 1.04 | 0.8 | 1.02 | 0.907 | 0.925 | 0.677 | 0.81
RERF-LC-KJ | 0.847 | 0.874 | 0.718 | 0.78 | 0.762 | 0.558 | 0.41 | 0.492 | 0.465 | 0.336
NCI-H23 | 1.03 | 0.963 | 1.03 | 0.873 | 0.895 | 0.336 | 0.313 | 0.4 | 0.223 | 0.263
HOP-62 | 1.08 | 1.07 | 1.12 | 1.15 | 1.04 | 0.366 | 0.349 | 0.408 | 0.414 | 0.395
HARA | 0.522 | 0.952 | 0.848 | 0.769 | 0.821 |  | 0.352 | 0.126 | 0.0979 | 0.104

Cell Line | relative viability ([1]; first compound 0.08 µM) | relative viability ([1]; first compound 0.253 µM) | relative viability ([1]; first compound 0.8 µM) | relative viability ([1]; first compound 2.53 µM) | relative viability ([1]; first compound 8 µM) | relative viability (Masitinib + Tozasertib; first compound 0.01 µM) | relative viability (Masitinib + Tozasertib; first compound 0.03162 µM) | relative viability (Masitinib + Tozasertib; first compound 0.1 µM) | relative viability (Masitinib + Tozasertib; first compound 0.3162 µM) | relative viability (Masitinib + Tozasertib; first compound 1 µM)
PC-14 | 0.875 | 0.891 | 0.889 | 0.959 | 0.928 | 0.5 | 0.563 | 0.512 | 0.482 | 0.478
HCC-78 |  | 0.484 | 0.558 | 0.537 | 0.568 | 0.338 | 0.446 | 0.423 | 0.447 | 0.454
IA-LM | 1.04 | 1.16 | 1.03 | 0.941 | 0.838 |  |  |  |  | 
NCI-H441 | 0.754 | 0.791 | 1.12 | 0.857 | 0.842 | 0.67 | 0.571 | 0.637 | 0.7 | 0.473
NCI-H322M | 0.788 | 0.924 | 0.89 | 1.01 | 0.915 | 0.452 | 0.513 | 0.485 | 0.449 | 0.467
LU99A | 0.807 | 0.805 | 0.803 | 0.915 | 0.941 | 0.289 | 0.221 | 0.282 | 0.269 | 0.257
COR-L23 | 0.986 | 0.945 | 0.886 | 0.864 | 0.87 | 0.207 | 0.164 | 0.168 | 0.124 | 0.15
NCI-H2126 | 0.858 | 1.11 | 1.08 | 0.982 | 0.862 | 0.938 | 0.819 | 0.926 | 0.627 | 0.828
LC-2-ad | 0.836 |  | 0.901 | 0.909 | 1.07 | 0.426 | 0.443 | 0.435 | 0.391 | 0.384
NCI-H1975 | 0.687 | 0.704 | 0.837 | 0.617 | 0.633 | 0.764 | 0.609 | 0.609 |  | 0.263
NCI-H1944 | 0.863 | 0.85 | 0.862 | 0.75 | 0.777 |  | 0.214 |  | 0.205 | 0.247
NCI-H2085 | 0.903 | 0.994 | 0.989 | 0.95 | 0.759 | 0.691 | 0.779 | 0.865 | 0.479 | 0.663
COR-L 105 | 1.16 | 0.977 | 1.01 | 1.01 | 0.562 | 0.377 | 0.353 | 0.361 | 0.333 | 0.317
SK-LU-1 | 0.767 | 0.886 |  | 0.781 | 0.76 | 0.349 | 0.299 | 0.319 | 0.35 | 0.292
NCI-H1299 | 1 | 1.06 | 0.993 | 1.01 | 0.897 |  |  |  |  | 
PC-3 [JPC-3] | 0.975 | 0.928 | 0.911 | 0.918 | 0.824 | 0.879 | 0.782 | 0.917 | 0.824 | 0.878
NCI-H661 | 0.904 | 1.07 | 0.973 | 0.999 | 0.863 | 0.338 | 0.372 | 0.344 | 0.342 | 0.363
NCI-H1703 | 0.293 | 0.347 | 0.367 | 0.374 | 0.375 |  |  |  |  | 
